{"source": "paper PMC9081605", "about": "“A High-Throughput Toxicity Screen of 42 Per- and Polyfluoroalkyl Substances (PFAS) and Functional Assessment of Migration and Gene Expression in Human Placental Trophoblast Cells” (Frontiers in Toxicology, 2022)", "system": "JEG-3 cells", "experiment": "Gene expression, custom NanoString code set of 46 genes", "assay_type": "cell-based, human", "procedure": "JEG-3 cells were seeded at a density of 80,000 cells per well in six well plates and allowed to adhere overnight (24 h). The following day, media was removed and replaced with exposure media, then returned to the incubator for 24 h. The test compounds included non-cytotoxic concentrations of PFOA (0, 1, and 100 µM) and GenX (0, 3, 300 µM). These test compounds were selected a priori due to their high public health relevance. Each 6 well plate contained the three concentrations for either PFOA or GenX, with each condition in technical duplicate. Plates containing these PFOA or GenX exposure conditions were replicated three times (N = 3). After 24 h, exposure media was aspirated and cells were washed in ice cold 1xPBS, which was then aspirated. Each well received 500 µl of TRIzol reagent (Thermo Fisher Scientific, MA, United States) and cells were harvested in the TRIzol using a cell scraper. Technical duplicate wells within a plate were combined to generate a single sample of ∼1,000 µl. RNA was isolated from the resulting cellular homogenate using RNeasy Mini Kits (Qiagen, Hilden, Germany). Isolated RNA quality was validated and concentration determined using a NanoDrop 2000 (Thermo Fisher Scientific, MA, United States). 100 ng of mRNA from each sample was then analyzed using a custom gene expression code set (NanoString, Seattle, WA, United States). The custom code set included 46 genes selected for their downstream involvement in placental development (e.g., WNT4), endocrine signaling (e.g., CYP19A1), fetal growth/nutrient sensing (e.g., IGF2), inflammation (e.g., IL6), oxidative stress (e.g., SOD1, GPX1), and xenobiotic transport/metabolism (e.g., ABCG2, MRP3).\nGene expression data were quantified using the nCounter Digital Analyzer (NanoString, Seattle, WA, United States) and raw and adjusted counts were generated with nSolver (v4.0) software (NanoString, Seattle, WA, United States). Data were adjusted utilizing the manufacturer’s positive and negative experimental control probes, as well as housekeeping genes (ACTA2, ACTB, B2M, LDHA, RNA18S5, and ROLYR2L). All samples passed nSolver’s initial QA/QC controls and replicates were very well correlated with R ^2 values greater than 0.99. Adjusted data were then imported into Partek v7.0 (St. Louis, MO, United States), log2 transformed and quantile normalized for further QA/QC and statistical analyses. Genes with mRNA counts below the detection threshold of 20 were removed due to suboptimal probe hybridization (N = 2 genes for GenX; GH2 and IGFBP5). Fold change values were analyzed by ANOVA with post hoc false discovery rate adjustment (FDR) of p < 0.1. Normalized gene expression values were visualized using pheatmap with Euclidean clustering of genes and concentration groups ([Kolde and Kolde, 2015])."}
{"smiles": "N.O=C(O)C(F)(OC(F)(F)C(F)(F)C(F)(F)F)C(F)(F)F", "note": "(centres unmarked) [Ammonium perfluoro-2-methyl-3-oxahexanoate]", "values": [{"measurement": "11BHSD2 gene expression, fold change over untreated control", "setting": "3 µM, 24 h", "value": -1.00}, {"measurement": "17BHSD1 gene expression, fold change over untreated control", "setting": "3 µM, 24 h", "value": -1.11}, {"measurement": "AHR gene expression, fold change over untreated control", "setting": "3 µM, 24 h", "value": 1.04}, {"measurement": "AHRR gene expression, fold change over untreated control", "setting": "3 µM, 24 h", "value": 1.18}, {"measurement": "CAT gene expression, fold change over untreated control", "setting": "3 µM, 24 h", "value": 1.02}, {"measurement": "CGB5 gene expression, fold change over untreated control", "setting": "3 µM, 24 h", "value": 1.08}, {"measurement": "COX2 gene expression, fold change over untreated control", "setting": "3 µM, 24 h", "value": 1.27}, {"measurement": "CTNNB1 gene expression, fold change over untreated control", "setting": "3 µM, 24 h", "value": 1.00}, {"measurement": "CYP1A1 gene expression, fold change over untreated control", "setting": "3 µM, 24 h", "value": -1.22}, {"measurement": "CYP2E1 gene expression, fold change over untreated control", "setting": "3 µM, 24 h", "value": -1.26}, {"measurement": "CYP3A5 gene expression, fold change over untreated control", "setting": "3 µM, 24 h", "value": 1.19}, {"measurement": "CYP3A7 gene expression, fold change over untreated control", "setting": "3 µM, 24 h", "value": 1.01}, {"measurement": "CYP19A1 gene expression, fold change over untreated control", "setting": "3 µM, 24 h", "value": -1.03}, {"measurement": "EGFR gene expression, fold change over untreated control", "setting": "3 µM, 24 h", "value": 1.00}, {"measurement": "ENG gene expression, fold change over untreated control", "setting": "3 µM, 24 h", "value": 1.04}, {"measurement": "ESRRA gene expression, fold change over untreated control", "setting": "3 µM, 24 h", "value": 1.00}, {"measurement": "ESRRG gene expression, fold change over untreated control", "setting": "3 µM, 24 h", "value": -1.16}, {"measurement": "GHR gene expression, fold change over untreated control", "setting": "3 µM, 24 h", "value": 1.15}, {"measurement": "GPER1 gene expression, fold change over untreated control", "setting": "3 µM, 24 h", "value": -1.02}, {"measurement": "HIF1A gene expression, fold change over untreated control", "setting": "3 µM, 24 h", "value": 1.00}, {"measurement": "IGF2 gene expression, fold change over untreated control", "setting": "3 µM, 24 h", "value": 1.00}, {"measurement": "IGFR1 gene expression, fold change over untreated control", "setting": "3 µM, 24 h", "value": -1.02}, {"measurement": "IGFR2 gene expression, fold change over untreated control", "setting": "3 µM, 24 h", "value": 1.04}, {"measurement": "IL6 gene expression, fold change over untreated control", "setting": "3 µM, 24 h", "value": -1.23}, {"measurement": "MRP1 gene expression, fold change over untreated control", "setting": "3 µM, 24 h", "value": -1.05}, {"measurement": "MRP2 gene expression, fold change over untreated control", "setting": "3 µM, 24 h", "value": 1.05}, {"measurement": "MRP3 gene expression, fold change over untreated control", "setting": "3 µM, 24 h", "value": 1.07}, {"measurement": "NFKB1 gene expression, fold change over untreated control", "setting": "3 µM, 24 h", "value": 1.03}, {"measurement": "NFKB2 gene expression, fold change over untreated control", "setting": "3 µM, 24 h", "value": -1.07}, {"measurement": "NR3C1 gene expression, fold change over untreated control", "setting": "3 µM, 24 h", "value": 1.00}, {"measurement": "PGF gene expression, fold change over untreated control", "setting": "3 µM, 24 h", "value": 1.00}, {"measurement": "PMM1 gene expression, fold change over untreated control", "setting": "3 µM, 24 h", "value": -1.05}, {"measurement": "ROLYR2L gene expression, fold change over untreated control", "setting": "3 µM, 24 h", "value": 1.00}, {"measurement": "SLC2A1 gene expression, fold change over untreated control", "setting": "3 µM, 24 h", "value": -1.04}, {"measurement": "SOD1 gene expression, fold change over untreated control", "setting": "3 µM, 24 h", "value": 1.00}, {"measurement": "TGFB1 gene expression, fold change over untreated control", "setting": "3 µM, 24 h", "value": -1.04}, {"measurement": "VEGFA gene expression, fold change over untreated control", "setting": "3 µM, 24 h", "value": 1.04}, {"measurement": "VEGFB gene expression, fold change over untreated control", "setting": "3 µM, 24 h", "value": 1.00}, {"measurement": "WNT4 gene expression, fold change over untreated control", "setting": "3 µM, 24 h", "value": 1.08}, {"measurement": "WNT6 gene expression, fold change over untreated control", "setting": "3 µM, 24 h", "value": -1.09}, {"measurement": "WNT7B gene expression, fold change over untreated control", "setting": "3 µM, 24 h", "value": 1.07}, {"measurement": "mTOR gene expression, fold change over untreated control", "setting": "3 µM, 24 h", "value": 1.00}, {"measurement": "11BHSD2 gene expression, fold change over untreated control", "setting": "300 µM, 24 h", "value": -1.01}, {"measurement": "AHR gene expression, fold change over untreated control", "setting": "300 µM, 24 h", "value": -1.04}, {"measurement": "AHRR gene expression, fold change over untreated control", "setting": "300 µM, 24 h", "value": 1.19}, {"measurement": "CAT gene expression, fold change over untreated control", "setting": "300 µM, 24 h", "value": -1.05}, {"measurement": "CGB5 gene expression, fold change over untreated control", "setting": "300 µM, 24 h", "value": 1.11}, {"measurement": "COX2 gene expression, fold change over untreated control", "setting": "300 µM, 24 h", "value": 1.27}, {"measurement": "CYP1A1 gene expression, fold change over untreated control", "setting": "300 µM, 24 h", "value": -1.16}, {"measurement": "CYP2E1 gene expression, fold change over untreated control", "setting": "300 µM, 24 h", "value": 1.04}, {"measurement": "CYP3A5 gene expression, fold change over untreated control", "setting": "300 µM, 24 h", "value": -1.83}, {"measurement": "CYP3A7 gene expression, fold change over untreated control", "setting": "300 µM, 24 h", "value": -1.25}, {"measurement": "CYP19A1 gene expression, fold change over untreated control", "setting": "300 µM, 24 h", "value": -1.29}, {"measurement": "ENG gene expression, fold change over untreated control", "setting": "300 µM, 24 h", "value": -1.04}, {"measurement": "ESRRA gene expression, fold change over untreated control", "setting": "300 µM, 24 h", "value": 1.19}, {"measurement": "ESRRG gene expression, fold change over untreated control", "setting": "300 µM, 24 h", "value": 1.00}, {"measurement": "GHR gene expression, fold change over untreated control", "setting": "300 µM, 24 h", "value": 1.11}, {"measurement": "HIF1A gene expression, fold change over untreated control", "setting": "300 µM, 24 h", "value": 1.05}, {"measurement": "IGFR1 gene expression, fold change over untreated control", "setting": "300 µM, 24 h", "value": -1.10}, {"measurement": "IGFR2 gene expression, fold change over untreated control", "setting": "300 µM, 24 h", "value": -1.00}, {"measurement": "IL6 gene expression, fold change over untreated control", "setting": "300 µM, 24 h", "value": -1.51}, {"measurement": "MRP1 gene expression, fold change over untreated control", "setting": "300 µM, 24 h", "value": 1.14}, {"measurement": "MRP2 gene expression, fold change over untreated control", "setting": "300 µM, 24 h", "value": 1.00}, {"measurement": "MRP3 gene expression, fold change over untreated control", "setting": "300 µM, 24 h", "value": 1.44}, {"measurement": "NFKB1 gene expression, fold change over untreated control", "setting": "300 µM, 24 h", "value": 1.03}, {"measurement": "NFKB2 gene expression, fold change over untreated control", "setting": "300 µM, 24 h", "value": -1.04}, {"measurement": "NR3C1 gene expression, fold change over untreated control", "setting": "300 µM, 24 h", "value": 1.00}, {"measurement": "PGF gene expression, fold change over untreated control", "setting": "300 µM, 24 h", "value": -1.00}, {"measurement": "PMM1 gene expression, fold change over untreated control", "setting": "300 µM, 24 h", "value": 1.05}, {"measurement": "ROLYR2L gene expression, fold change over untreated control", "setting": "300 µM, 24 h", "value": 1.00}, {"measurement": "SLC2A1 gene expression, fold change over untreated control", "setting": "300 µM, 24 h", "value": -1.13}, {"measurement": "TGFB1 gene expression, fold change over untreated control", "setting": "300 µM, 24 h", "value": 1.00}, {"measurement": "VEGFA gene expression, fold change over untreated control", "setting": "300 µM, 24 h", "value": 1.27}, {"measurement": "VEGFB gene expression, fold change over untreated control", "setting": "300 µM, 24 h", "value": -1.01}, {"measurement": "WNT4 gene expression, fold change over untreated control", "setting": "300 µM, 24 h", "value": 1.20}, {"measurement": "WNT6 gene expression, fold change over untreated control", "setting": "300 µM, 24 h", "value": -1.09}, {"measurement": "WNT7B gene expression, fold change over untreated control", "setting": "300 µM, 24 h", "value": -1.12}, {"measurement": "mTOR gene expression, fold change over untreated control", "setting": "300 µM, 24 h", "value": 1.00}, {"measurement": "number of genes with significantly altered expression (of 46)", "setting": "300 µM, 24 h, FDR p < 0.1", "value": 15, "unit": "genes"}, {"measurement": "lowest concentration inducing significant dysregulated expression of placental genes", "setting": "after 24 h of exposure", "value": 3, "unit": "µM"}]}
